What was measured:
CSF1R (human) = target: T1, CSF1R (human) (Homo sapiens, UniProt P07333); test: Competition binding assay, CSF1R (human) Kd
T1 construct: made in house; host or cells: T7 phage display or HEK-293 cells (alternatives, not resolved per kinase)
Description: (§1) The liganded beads were blocked with excess biotin and washed with blocking buffer (SeaBlock (Pierce), 1% BSA, 0.05% Tween 20, 1 mM DTT) to remove unbound ligand and to reduce non-specific binding. […] Test compounds were prepared as 100× stocks in DMSO and diluted into the aqueous environment. Kds were determined using an eleven point threefold serial dilutions. DMSO or control compounds were was added to control assays lacking a test compound. […] The kinase concentration in the eluates was measured by quantitative PCR.

CSF1R (mouse) = target: T2, CSF1R (mouse) (Mus musculus, UniProt P09581); test: Competition binding assay, CSF1R (mouse) Kd
T2 construct: made in house; host or cells: T7 phage display or HEK-293 cells (alternatives, not resolved per kinase)
T2 sequence (P09581 20-977): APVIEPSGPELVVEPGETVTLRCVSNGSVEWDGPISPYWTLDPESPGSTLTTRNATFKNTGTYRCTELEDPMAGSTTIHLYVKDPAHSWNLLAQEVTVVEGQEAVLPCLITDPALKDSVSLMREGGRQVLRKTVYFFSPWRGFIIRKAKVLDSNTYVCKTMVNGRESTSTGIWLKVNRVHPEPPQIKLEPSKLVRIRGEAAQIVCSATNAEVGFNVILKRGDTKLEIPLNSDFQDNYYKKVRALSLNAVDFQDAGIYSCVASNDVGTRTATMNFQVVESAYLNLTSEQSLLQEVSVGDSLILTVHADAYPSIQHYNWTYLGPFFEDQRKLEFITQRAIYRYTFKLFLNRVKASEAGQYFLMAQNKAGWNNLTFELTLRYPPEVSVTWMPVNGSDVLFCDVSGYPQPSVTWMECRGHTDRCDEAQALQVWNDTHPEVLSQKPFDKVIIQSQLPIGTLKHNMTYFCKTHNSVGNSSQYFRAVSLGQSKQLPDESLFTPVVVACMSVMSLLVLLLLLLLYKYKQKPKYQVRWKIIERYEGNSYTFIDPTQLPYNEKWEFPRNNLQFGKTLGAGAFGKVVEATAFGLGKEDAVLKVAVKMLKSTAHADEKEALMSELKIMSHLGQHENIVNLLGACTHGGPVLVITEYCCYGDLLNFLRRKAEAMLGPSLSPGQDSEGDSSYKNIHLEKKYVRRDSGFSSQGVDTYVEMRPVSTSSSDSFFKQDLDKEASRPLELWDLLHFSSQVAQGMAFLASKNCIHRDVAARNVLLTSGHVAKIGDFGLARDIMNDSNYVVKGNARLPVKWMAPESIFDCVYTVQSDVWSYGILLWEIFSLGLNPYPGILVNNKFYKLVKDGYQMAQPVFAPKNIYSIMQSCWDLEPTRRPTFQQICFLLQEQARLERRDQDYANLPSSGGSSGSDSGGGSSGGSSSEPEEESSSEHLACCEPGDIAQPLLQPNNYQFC
Description: as §1

M-NFS-60 cells = test: M-NFS-60 cell proliferation assay; format: cell-based, mouse; set-up: CSF1R Cell Proliferation (M-NFS-60) IC50 (nM): scale not given here; conditions: 72 hours incubation, Alamar Blue, M-CSF-dependent cells; for IC50: Mus musculus, read-out: CSF1R Cell Proliferation (M-NFS-60) IC50
Description: In certain embodiments, the compounds disclosed herein are tested in an M-NFS-60 cell proliferation assay to determine their cellular potency against CSF-1R. M-NFS-60s are mouse monocytic cells that depend on the binding of the ligand M-CSF to its receptor, CSF-1R, to proliferate Inhibition of CSF-1R kinase activity will cause reduced growth and/or cell death. This assay assesses the potency of compounds as CSF-1R inhibitors by measuring the reduction of Alamar Blue reagent by viable cells. An exemplary assay is described in the Examples section.
The compounds disclosed herein were tested in an M-NFS-60 cell proliferation assay to determine their cellular potency against CSF1R. M-NFS-60s are mouse monocytic cells that depend on the binding of the ligand M-CSF to its receptor, CSF1R, to proliferate Inhibition of CSF1R kinase activity will cause reduced growth and/or cell death. This assay assesses the potency of compounds as CSF1R inhibitors by measuring the reduction of Alamar Blue reagent by viable cells.
On day one of the experiment, M-NFS-60 cells were maintained in RPMI complete medium (Omega Scientific) plus 10% FBS supplemented with 20 ng/mL of M-CSF (R&D Systems). 96-well TC-treated, flat bottom plates were seeded at 10,000 cell/well at a volume of 100 μL per well. The cells were cultured overnight at 37° C. under 5% CO2.
On day two, compounds were added to the cells at 9 different concentrations, with half-log intervals alongside a control reference compound serving as a positive control. Final DMSO concentration was kept at 0.5% for a final volume of 200 μL. The compounds were allowed to incubate with the cells for 72 hours at 37° C. under 5% CO2.
On day five of the experiment, 40 μl of Alamar Blue reagent was added to each well and allowed to incubate for 3 hours. Alamar Blue fluorescence was read using SoftMax Pro software at 560 nm (excitation) and 590 nm (emission). IC50s were generated as an average of duplicates and represents the concentration of test compound that achieves 50% inhibition of cellular proliferation compared to control.

[1] = target: kinase panel containing either 359 or 386 distinct kinases; test: Competition binding assay, selectivity score (S10) against a panel of kinases; conditions: compounds at 10 μM; fraction of kinases with percent of control less than 10
Description: Competition binding assays used herein were developed, validated and performed as described in Fabian et al., Nature Biotechnology 2005, 23, 329-336. Kinases were produced as fusions to T7 phage (See, Fabian et al. or WO04/015142) or alternatively, the kinases were expressed in HEK-293 cells and subsequently tagged with DNA for PCR detection (See, WO08/005,310). […] The liganded beads were blocked with excess biotin and washed with blocking buffer (SeaBlock (Pierce), 1% BSA, 0.05% Tween 20, 1 mM DTT) to remove unbound ligand and to reduce non-specific binding. […] Test compounds were prepared as 100× stocks in DMSO and diluted into the aqueous environment. Kds were determined using an eleven point threefold serial dilutions. DMSO or control compounds were was added to control assays lacking a test compound. Primary screen assays were performed in polypropylene 384-well plates in a final volume of 20-40 μL, while Kd determinations were performed in polystyrene 96-well plates in a final volume of […]. […] The kinase concentration in the eluates was measured by quantitative PCR.
A selectivity score (S10) is a quantitative measure of selectivity of a compound against a panel of kinases. An S10 was calculated for a compound by dividing the number of kinases found to have a percent of control (DMSO) less than 10 by the total number of distinct kinases tested (excluding mutant variants). Percent of control (POC) is calculated by subtracting the signal of the control compound
(POC=0) from the signal of the test compound and dividing the outcome by the signal of DMSO (POC=100) minus the signal of the control compound. For the compounds disclosed herein, S10 scores were obtained by testing the compounds at 10 μM concentration in a kinase panel containing either 359 or 386 distinct kinases.

T1 sequence (P07333 20-972): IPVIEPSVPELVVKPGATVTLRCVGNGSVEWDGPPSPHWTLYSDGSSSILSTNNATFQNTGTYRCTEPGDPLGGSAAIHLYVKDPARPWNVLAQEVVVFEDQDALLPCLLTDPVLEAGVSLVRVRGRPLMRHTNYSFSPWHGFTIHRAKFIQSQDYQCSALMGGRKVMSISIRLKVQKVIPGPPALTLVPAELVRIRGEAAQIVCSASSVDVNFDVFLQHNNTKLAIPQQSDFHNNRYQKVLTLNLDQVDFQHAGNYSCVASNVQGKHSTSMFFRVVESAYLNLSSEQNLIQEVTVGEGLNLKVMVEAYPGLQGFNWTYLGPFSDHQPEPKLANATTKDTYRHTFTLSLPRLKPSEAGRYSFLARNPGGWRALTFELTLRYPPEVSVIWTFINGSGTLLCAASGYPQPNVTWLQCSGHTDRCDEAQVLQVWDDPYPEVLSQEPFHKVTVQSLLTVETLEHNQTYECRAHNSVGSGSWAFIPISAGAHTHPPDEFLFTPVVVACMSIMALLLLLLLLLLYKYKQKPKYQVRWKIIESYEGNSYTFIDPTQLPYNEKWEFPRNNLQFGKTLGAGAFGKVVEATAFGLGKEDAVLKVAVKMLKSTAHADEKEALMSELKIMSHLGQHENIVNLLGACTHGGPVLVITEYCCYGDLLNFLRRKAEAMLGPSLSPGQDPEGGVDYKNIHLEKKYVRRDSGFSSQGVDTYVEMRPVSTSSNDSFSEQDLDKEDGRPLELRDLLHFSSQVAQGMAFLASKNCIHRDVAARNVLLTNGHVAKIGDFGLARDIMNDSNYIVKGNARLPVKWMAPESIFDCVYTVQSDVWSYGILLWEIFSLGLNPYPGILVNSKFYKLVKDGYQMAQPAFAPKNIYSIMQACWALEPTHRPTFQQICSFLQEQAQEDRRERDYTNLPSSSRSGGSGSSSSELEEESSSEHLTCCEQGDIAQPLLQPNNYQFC

| SMILES | Kd (CSF1R (human)) | Kd (CSF1R (mouse)) | IC50 (M-NFS-60 cells) | Kinase Specificity (S10) [1] | CSF1R Cell Proliferation (M-NFS-60) IC50 (nM) (M-NFS-60 cells) |
| --- | --- | --- | --- | --- | --- |
| CN1CCC(Oc2ccnc(C(=O)Nc3ccc(NC(=O)Nc4cc(C(C)(C)C)on4)cc3)c2)CC1 | 0.003 to 0.01 µM | 0.003 to 0.01 µM | 0.25 to 1 µM | B (0.03 < B ≦ 0.05) | – |
| CN1CCN(c2cccc(C(=O)Nc3ccc(NC(=O)Nc4cc(C(C)(C)C)on4)cc3)n2)CC1 | 0.003 to 0.01 µM | 0.003 to 0.01 µM | > 1 µM | B (0.03 < B ≦ 0.05) | – |
| CCN(CC)Cc1ccnc(C(=O)Nc2ccc(NC(=O)Nc3cc(C(C)(C)C)on3)cc2)c1 | 0.003 to 0.01 µM | 0.003 to 0.01 µM | 0.25 to 1 µM | A (A ≦ 0.03) | – |
| CN1CCN(c2ccc(C(=O)Nc3ccc(NC(=O)Nc4cc(C(C)(C)C)on4)cc3)nc2)CC1 | < 0.003 µM | < 0.003 µM | ≤ 0.1 µM | C (C > 0.05) | – |
| CC(C)(C)OC(=O)N1CCC(Oc2ccc(C(=O)N[C@H]3CC[C@H](NC(=O)Nc4cc(C(C)(C)C)on4)CC3)nc2)CC1 | > 0.01 µM | 0.003 to 0.01 µM | 0.25 to 1 µM | A (A ≦ 0.03) | – |
| CC(C)(C)c1cc(NC(=O)N[C@H]2CC[C@H](NC(=O)c3ccc(OC4CCNCC4)cn3)CC2)no1 | 0.003 to 0.01 µM | 0.003 to 0.01 µM | > 1 µM | A (A ≦ 0.03) | – |
| CCN1CCC(Oc2ccc(C(=O)N[C@H]3CC[C@H](NC(=O)Nc4cc(C(C)(C)C)on4)CC3)nc2)CC1 | 0.003 to 0.01 µM | 0.003 to 0.01 µM | 0.25 to 1 µM | A (A ≦ 0.03) | – |
| CC(C)(C)c1cc(NC(=O)Nc2ccc(NC(=O)c3ccc(CC4CCNCC4)cn3)cc2)no1 | < 0.003 µM | < 0.003 µM | 0.1 to 0.25 µM | A (A ≦ 0.03) | – |
| CN1CCC(c2ccc(C(=O)Nc3ccc(NC(=O)Nc4cc(C(C)(C)C)on4)cc3)nc2)CC1 | 0.003 to 0.01 µM | 0.003 to 0.01 µM | ≤ 0.1 µM | B (0.03 < B ≦ 0.05) | – |
| CC(C)(C)c1cc(NC(=O)Nc2ccc(NC(=O)c3cccc(OC4CCNCC4)n3)cc2)no1 | > 0.01 µM | > 0.01 µM | > 1 µM | B (0.03 < B ≦ 0.05) | – |
| CCN1CCC(Oc2ccc(C(=O)Nc3ccc(NC(=O)Nc4cc(C(C)(CF)CF)on4)cc3)nc2)CC1 | < 0.003 µM | < 0.003 µM | ≤ 0.1 µM | B (0.03 < B ≦ 0.05) | – |
| CN1CCC(Oc2ccc(C(=O)Nc3ccc(NC(=O)Nc4cc(C(C)(CF)CF)on4)cc3)nc2)CC1 | < 0.003 µM | < 0.003 µM | ≤ 0.1 µM | B (0.03 < B ≦ 0.05) | – |
| CC(CF)(CF)c1cc(NC(=O)Nc2ccc(NC(=O)c3ccc(OC4CCN(CC(F)(F)F)CC4)cn3)cc2)no1 | < 0.003 µM | < 0.003 µM | 0.1 to 0.25 µM | A (A ≦ 0.03) | – |
| CC(C)N1CCC(Oc2ccc(C(=O)Nc3ccc(NC(=O)Nc4cc(C(C)(CF)CF)on4)cc3)nc2)CC1 | < 0.003 µM | < 0.003 µM | ≤ 0.1 µM | B (0.03 < B ≦ 0.05) | – |
| CCN(CC)Cc1cccc(C(=O)Nc2ccc(NC(=O)Nc3cc(C(C)(C)C)on3)cc2)n1 | > 0.01 µM | > 0.01 µM | > 1 µM | A (A ≦ 0.03) | – |
| CN1C(C)(C)CC(Oc2ccc(C(=O)Nc3ccc(NC(=O)Nc4cc(C(C)(C)F)no4)cc3)nc2)CC1(C)C | < 0.003 µM | – | ≤ 0.1 µM | A (A ≦ 0.03) | – |
| CC(C)(C)c1cc(NC(=O)Nc2ccc(NC(=O)c3cc(OCCN4CCOCC4)ccn3)cc2)no1 | 0.003 to 0.01 µM | < 0.003 µM | – | A (A ≦ 0.03) | B/C |
| CC(C)(C)c1cc(NC(=O)Nc2ccc(NC(=O)c3ccc(CN4CCOCC4)cn3)cc2)no1 | 0.003 to 0.01 µM | 0.003 to 0.01 µM | 0.1 to 0.25 µM | A (A ≦ 0.03) | – |
| CC(C)(C)c1cc(NC(=O)Nc2ccc(NC(=O)c3cccc(OCCN4CCOCC4)n3)cc2)no1 | > 0.01 µM | > 0.01 µM | > 1 µM | A (A ≦ 0.03) | – |
| CC(C)(C)c1cc(NC(=O)Nc2ccc(NC(=O)c3cccc(CN4CCOCC4)n3)cc2)no1 | > 0.01 µM | > 0.01 µM | > 1 µM | B (0.03 < B ≦ 0.05) | – |

Reference: US9296722B2, “Azolyl urea compounds and methods of use thereof” (Ambit Biosciences Corporation, priority 2010, dated 2016)
